Data taken from ChEMBL document CHEMBL6103570, “An endoplasmic reticulum and lipid droplets dual-localized strategy to develop small molecular photosensitizers that induce ferroptosis during photodynamic therapy” (Eur J Med Chem, 2025).
Active and inactive are the calls of the source. No cut-off for these calls is given here.

Experiments:
[1] = system: 4T1; test: Antitumor activity against mouse 4T1 cells implanted in mouse model assessed as tumor growth inhibition at 3 mg/kg, IG measured every two days for 15 days under 80 mW/cm2 for 15 mins by digital caliper method relative to control; type: functional; settings: 4T1, po, 360 h, time 15 day, read-out: TGI
[2] = (§1) Photo selectivity index, ratio of CC50 for darktoxicity in human Bcap37 cells assessed as cell viability preincubated for 24 hrs followed by incubation under dark condition for 24 hrs by MTT assay to IC50 for phototoxicity in human Bcap37 cells assessed as cell viability preincubated for 24 hrs followed by white light irradiation at 20 mW/cm2 for 10 mins and measured after 24 hrs by MTT assay; type: toxicity, cell-based; settings: read-out: Ratio CC50/IC50
[3] = system: 4T1; test: Induction of ferroptosis in mouse 4T1 cells assessed as cell viability at 20 nM preincubated for 24 hrs followed by white light irradiation at 20 mW/cm2 and measured after 24 hrs in presence of Nec-1 by MTT assay; type: functional, cell-based; settings: time 48.0 hrs
[4] = Drug localization in mitochondria of mouse 4T1 cells assessed as increase in green fluorescence by measuring pearson correlation coefficient at 2 uM incubated for 12 hrs by confocal scanning microscopy analysis; type: ADME; settings: 4t1, 12 h
[5] = Phototoxicity in mouse 4T1 cells assessed as cell viability preincubated for 24 hrs followed by white light irradiation at 20 mW/cm2 for 10 mins and measured after 24 hrs by MTT assay; type: functional, cell-based; settings: 4T1, light or radiation study
[6] = system: 4T1; test: Induction of ferroptosis in mouse 4T1 cells assessed as cell viability at 20 nM preincubated for 24 hrs followed by white light irradiation at 20 mW/cm2 and measured after 24 hrs in presence of 3-MA by MTT assay; type: functional, cell-based; settings: time 48.0 hrs
[7] = system: 4T1; test: Induction of ferroptosis in mouse 4T1 cells assessed as cell viability at 20 nM preincubated for 24 hrs followed by white light irradiation at 20 mW/cm2 and measured after 24 hrs in presence of Fer-1 by MTT assay; type: functional, cell-based; settings: time 48.0 hrs
[8] = as §1, with “mouse 4T1” for “human Bcap37”; type: toxicity, cell-based; settings: read-out: Ratio CC50/IC50
[9] = as §1, with “MCF7” for “Bcap37”; type: toxicity, cell-based; settings: read-out: Ratio CC50/IC50
[10] = Photosensitizing ability of the compound in EtOH assessed as singlet oxygen quantum yield at 100 nM under 520nm 30 mW/cm2 light irradiation by DPBF reagent based analysis; type: functional
[11] = Toxicity in mouse assessed as effect on lung in at 3 mg/kg, IG measured after 15 days by H and E staining based analysis; type: organism-based; settings: in vivo, po, 360 h, time 15 day
[12] = Drug localization in endoplasmic reticulum of mouse 4T1 cells assessed as increase in green fluorescence at 2 uM incubated for 12 hrs by confocal scanning microscopy analysis; type: ADME, subcellular; settings: 4t1, 12 h
[13] = Toxicity in mouse assessed as effect on heart in at 3 mg/kg, IG measured after 15 days by H and E staining based analysis; type: organism-based; settings: in vivo, po, 360 h, time 15 day
[14] = Phototoxicity in human MCF7 cells assessed as cell viability preincubated for 24 hrs followed by white light irradiation at 20 mW/cm2 for 10 mins and measured after 24 hrs by MTT assay; type: functional, cell-based; settings: MCF7, light or radiation study
[15] = Toxicity in mouse assessed as effect on liver in at 3 mg/kg, IG measured after 15 days by H and E staining based analysis; type: organism-based; settings: in vivo, po, 360 h, time 15 day
[16] = Drug localization in Lipid droplet of mouse 4T1 cells assessed as increase in green fluorescence at 2 uM incubated for 12 hrs by confocal scanning microscopy analysis; type: ADME, subcellular; settings: 4t1, 12 h
[17] = Toxicity in mouse assessed as effect on kidney in at 3 mg/kg, IG measured after 15 days by H and E staining based analysis; type: organism-based; settings: in vivo, po, 360 h, time 15 day
[18] = Potency index, ratio of IC50 for Chlorin e6 to IC50 for test compound for phototoxicity in human MDA-MB-231 cells assessed as cell viability preincubated for 24 hrs followed by white light irradiation at 20 mW/cm2 for 10 mins and measured after 24 hrs by MTT assay; type: functional; settings: time 48 hrs
[19] = system: 4T1; test: Induction of ferroptosis in mouse 4T1 cells assessed as cell viability at 20 nM preincubated for 24 hrs followed by white light irradiation at 20 mW/cm2 and measured after 24 hrs in presence of Z-VAD-FMK by MTT assay; type: functional, cell-based; settings: time 48.0 hrs
[20] = Darktoxicity in mouse 4T1 cells assessed as cell viability preincubated for 24 hrs followed by incubation under dark condition for 24 hrs by MTT assay; type: toxicity, cell-based; settings: time 48 hrs
[21] = Phototoxicity in human Bcap37 cells assessed as cell viability preincubated for 24 hrs followed by white light irradiation at 20 mW/cm2 for 10 mins and measured after 24 hrs by MTT assay; type: functional, cell-based; settings: Bcap37, light or radiation study
[22] = system: 4T1; test: Antitumor activity against mouse 4T1 cells implanted in mouse model assessed as infiltration of immune cells at 3 mg/kg, IG measured every two days for 15 days under 80 mW/cm2 for 15 mins by digital caliper method; type: functional, organism-based; settings: time 15.0 day
[23] = system: 4T1; test: Antitumor activity against mouse 4T1 cells implanted in mouse model assessed as reduction in tumor cells at 3 mg/kg, IG measured every two days for 15 days under 80 mW/cm2 for 15 mins by digital caliper method; type: functional, organism-based; settings: time 15.0 day
[24] = Photosensitizing ability of the compound in NaOH assessed as fluorescence quantum yield; type: functional
[25] = system: 4T1; test: (§2) Induction of intracellular ROS generation in mouse 4T1 cells assessed as increase in green fluorescence intensity at 5 to 60 nM incubated in dark for 24 hrs followed by compound removal and measured after 5 mins under 20 mW/cm2H2 white light irradiation by H2-DCFDA staining based fluorescence assay; type: functional, cell-based; settings: dose 5-60 nM
[26] = Toxicity in mouse assessed as effect on spleen in at 3 mg/kg, IG measured after 15 days by H and E staining based analysis; type: organism-based; settings: in vivo, po, 360 h, time 15 day
[27] = system: 4T1; test: Antitumor activity against mouse 4T1 cells implanted in mouse model assessed as reduction in metastatic tumor at 3 mg/kg, IG measured every two days for 15 days by digital caliper method; type: functional, organism-based; settings: time 15.0 day
[28] = Drug localization in Lysosome of mouse 4T1 cells assessed as increase in green fluorescence by measuring pearson correlation coefficient at 2 uM incubated for 12 hrs by confocal scanning microscopy analysis; type: ADME, subcellular; settings: 4t1, 12 h
[29] = system: 4T1; test: Induction of ferroptosis in mouse 4T1 cells assessed as decrease in intracellular GSH level at 10 nM preincubated in dark condition for 24 hrs followed by 20mW/cm2 white light irradiation for 10 mins and measured after 12 hrs by colorimetric assay; type: functional, cell-based; settings: time 2170.0 min
[30] = as §1, with “MDA-MB-231” for “Bcap37”; type: toxicity, cell-based; settings: read-out: Ratio CC50/IC50
[31] = system: 4T1; test: as §2, with “irradiation in presence of NaN3” for “irradiation”; type: functional, cell-based; settings: dose 5-60 nM
[32] = Drug localization in Lipid droplet of mouse 4T1 cells assessed as increase in green fluorescence by measuring pearson correlation coefficient at 2 uM incubated for 12 hrs by confocal scanning microscopy analysis; type: ADME, subcellular; settings: 4t1, 12 h
[33] = Darktoxicity in human Bcap37 cells assessed as cell viability preincubated for 24 hrs followed by incubation under dark condition for 24 hrs by MTT assay; type: toxicity, cell-based; settings: time 48 hrs
[34] = system: 4T1; test: Antitumor activity against mouse 4T1 cells implanted in mouse model assessed as reduction in tumor weight at 3 mg/kg, IG measured every two days for 15 days under 80 mW/cm2 for 15 mins by digital caliper method; type: functional, organism-based; settings: time 15.0 day
[35] = Darktoxicity in human MDA-MB-231 cells assessed as cell viability preincubated for 24 hrs followed by incubation under dark condition for 24 hrs by MTT assay; type: toxicity, cell-based; settings: time 48 hrs
[36] = system: 4T1; test: Induction of ferroptosis in mouse 4T1 cells assessed as increase in MDA level at 10 nM preincubated in dark condition for 24 hrs followed by 20mW/cm2 white light irradiation for 10 mins and measured after 6 hrs by colorimetric assay; type: functional, cell-based; settings: time 1810.0 min
[37] = system: 4T1; test: Antitumor activity against mouse 4T1 cells implanted in mouse model assessed as reduction in tumor growth at 3 mg/kg, IG measured every two days for 15 days by digital caliper method; type: functional, organism-based; settings: time 15.0 day
[38] = Darktoxicity in human MCF7 cells assessed as cell viability preincubated for 24 hrs followed by incubation under dark condition for 24 hrs by MTT assay; type: toxicity, cell-based; settings: time 48 hrs
[39] = Phototoxicity in human MDA-MB-231 cells assessed as cell viability preincubated for 24 hrs followed by white light irradiation at 20 mW/cm2 for 10 mins and measured after 24 hrs by MTT assay; type: functional, cell-based; settings: MDA-MB-231, light or radiation study

Question: Which inhibition in vivo at 3 mg/kg [1] does the source give for `COC(=O)c1cc2c3ccccc3n(C)c2c(C2=C3C(C)=C(I)C(C)=[N+]3[B-](F)(F)n3c(C)c(I)c(C)c32)n1` here?
Answer: Its inhibition in vivo at 3 mg/kg is 67.6%.

Question: And the selectivity ratio [2]?
Answer: Its selectivity ratio is over 8830.

Question: What about the Activity [3] of the same compound?
Answer: The Activity was “inactive”.

Question: And the Activity [4]?
Answer: The Activity was 0.49.

Question: And the IC50 [5]?
Answer: The IC50 was 0.019 µM.

Question: What about the Activity [6] of the same compound?
Answer: Its Activity is “inactive”.

Question: What about the Activity [7] of the same compound?
Answer: The Activity was “Active”.

Question: And the selectivity ratio [8]?
Answer: Its selectivity ratio is over 5290.

Question: What about the selectivity ratio [9] of the same compound?
Answer: The selectivity ratio was over 7750.

Question: What about the Activity [10] of the same compound?
Answer: The Activity was 0.78.

Question: What about the Activity [11] of the same compound?
Answer: Its Activity is “Non-toxic”.

Question: And the Drug uptake [12]?
Answer: Its Drug uptake is “Active”.

Question: What about the Activity [13] of the same compound?
Answer: The Activity was “Non-toxic”.

Question: What about the IC50 [14] of the same compound?
Answer: The IC50 was 0.013 µM.

Question: And the Activity [15]?
Answer: The Activity was “Non-toxic”.

Question: And the Drug uptake [16]?
Answer: The Drug uptake was “Active”.

Question: What about the Activity [17] of the same compound?
Answer: Its Activity is “Non-toxic”.

Question: What about the “Ratio IC50” value [18] of the same compound?
Answer: The value was 38.

Question: What about the Activity [19] of the same compound?
Answer: The Activity was “inactive”.

Question: And the CC50 at 24 h [20]?
Answer: The CC50 at 24 h was over 100 µM.

Question: And the IC50 [21]?
Answer: The IC50 was 0.011 µM.

Question: What about the Activity [22] of the same compound?
Answer: The Activity was “Active”.

Question: And the Activity [23]?
Answer: Its Activity is “Active”.

Question: And the Activity [24]?
Answer: Its Activity is 0.22.

Question: What about the Activity [25] of the same compound?
Answer: Its Activity is “Active”.

Question: What about the Activity [26] of the same compound?
Answer: Its Activity is “Non-toxic”.

Question: What about the Activity [27] of the same compound?
Answer: The Activity was “Active”.

Question: And the Activity [28]?
Answer: Its Activity is 0.53.

Question: What about the Activity [29] of the same compound?
Answer: Its Activity is “Active”.

Question: What about the selectivity ratio [30] of the same compound?
Answer: The selectivity ratio was over 9960.

Question: What about the Activity [31] of the same compound?
Answer: The Activity was “inactive”.

Question: And the Activity [32]?
Answer: Its Activity is 0.93.

Question: What about the CC50 at 24 h [33] of the same compound?
Answer: Its CC50 at 24 h is over 100 µM.

Question: What about the Activity [34] of the same compound?
Answer: Its Activity is “Active”.

Question: What about the CC50 at 24 h [35] of the same compound?
Answer: Its CC50 at 24 h is over 100 µM.

Question: What about the Activity [36] of the same compound?
Answer: Its Activity is “Active”.

Question: What about the Activity [37] of the same compound?
Answer: Its Activity is “inactive”.

Question: What about the CC50 at 24 h [38] of the same compound?
Answer: The CC50 at 24 h was over 100 µM.

Question: What about the IC50 [39] of the same compound?
Answer: Its IC50 is 0.01 µM.

Question: Which selectivity ratio [2] does the source give for `C=Cc1c(C)c2cc3nc(c(CC(=O)O)c4[nH]c(cc5nc(cc1[nH]2)C(C)=C5CC)c(C)c4C(=O)O)[C@@H](CCC(=O)O)[C@@H]3C` [CHLORIN E6] here?
Answer: The selectivity ratio was over 39.

Question: And the IC50 [5]?
Answer: Its IC50 is 0.862 µM.

Question: What about the selectivity ratio [8] of the same compound?
Answer: Its selectivity ratio is over 58.

Question: And the selectivity ratio [9]?
Answer: Its selectivity ratio is over 59.

Question: And the IC50 [14]?
Answer: Its IC50 is 0.85 µM.

Question: And the CC50 at 24 h [20]?
Answer: The CC50 at 24 h was over 50 µM.

Question: What about the IC50 [21] of the same compound?
Answer: Its IC50 is 1.27 µM.

Question: What about the selectivity ratio [30] of the same compound?
Answer: Its selectivity ratio is over 43.

Question: And the CC50 at 24 h [33]?
Answer: The CC50 at 24 h was over 50 µM.

Question: And the CC50 at 24 h [35]?
Answer: Its CC50 at 24 h is over 50 µM.

Question: What about the CC50 at 24 h [38] of the same compound?
Answer: Its CC50 at 24 h is over 50 µM.

Question: And the IC50 [39]?
Answer: Its IC50 is 1.17 µM.
